From US11566007B2, “Ras inhibitors” (Revolution Medicines, Inc., priority 2019, dated 2023)
Like-named read-outs stand apart in the source and are kept apart here. Each block holds one compound with its values, some of them ahead of it.

What was measured:
[1] = system: NCI-H358 (K-Ras G12C); experiment: CellTiter-Glo cell viability assay, NCI-H358; format: cell-based, human; details: NCI-H358, 5-day treatment, class symbols, read-out: Additional H358 Cell Viability assay data (K-Ras G12C, IC50)
Description: Note—The following protocol describes a procedure for monitoring cell viability of K-Ras mutant cancer cell lines in response to a compound of the invention. Other RAS isoforms may be employed, though the number of cells to be seeded will vary based on cell line used.
Test compounds (132.5 nL) were directly dispensed into the assay plates containing cells. […] On day 5, assay plates and their contents were equilibrated to room temperature for approximately 30 minutes. […] Luminescence was measured using the PerkinElmer Enspire. Data were normalized by the following: (Sample signal/Avg. DMSO)*100. The data were fit using a four-parameter logistic fit.

[2] = system: NCI-H358 cells (K-Ras G12C); experiment: Potency assay: pERK in NCI-H358 cells; format: cell-based, human
Description: The purpose of this assay is to measure the ability of test compounds to inhibit K-Ras in cells. […] This procedure measures a decrease in cellular pERK in response to test compounds.
NCI-H358 cells were grown and maintained using media and procedures recommended by the ATCC. On the day prior to compound addition, cells were plated in 384-well cell culture plates (40 μl/well) and grown overnight in a 37° C., 5% CO2 incubator. Test compounds were prepared in 10, 3-fold dilutions in DMSO, with a high concentration of 10 mM. On the day of assay, 40 nL of test compound was added to each well of cell culture plate using an Echo550 liquid handler (LabCyte®). Concentrations of test compound were tested in duplicate. After compound addition, cells were incubated 4 hours at 37° C., 5% CO2. Following incubation, culture medium was removed and cells were washed once with phosphate buffered saline.
In some experiments, cellular pERK level was determined using the AlphaLISA SureFire Ultra p-ERK1/2 Assay Kit (PerkinElmer). Cells were lysed in 25 μL lysis buffer, with shaking at 600 RPM at room temperature. […] After a 2-hour incubation in the dark, 5 μL donor mix was added, plate was sealed, and incubated 2 hours at room temperature. Signal was read on an Envision plate reader (PerkinElmer) using standard AlphaLISA settings. Analysis of raw data was carried out in Excel (Microsoft) and Prism (GraphPad). Signal was plotted vs. the decadal logarithm of compound concentration, and IC50 was determined by fitting a 4-parameter sigmoidal concentration response model.
In other experiments, cellular pERK was determined by In-Cell Western. […] Fixed cells were washed 4 times for 5 minutes with TBS containing 0.1% Triton X-100 (TBST) and then blocked with 100 μL Odyssey blocking buffer (LI-COR) for 60 minutes at room temperature. […] Cells were washed 4 times for 5 minutes with TBST. Secondary antibody (IR-800CW rabbit, LI-COR, diluted 1:800) and DNA stain DRAQS (LI-COR, diluted 1:2000) were added and incubated 1-2 hours at room temperature. Cells were washed 4 times for 5 minutes with TBST. Plates were scanned on a Li-COR Odyssey CLx Imager. Analysis of raw data was carried out in Excel (Microsoft) and Prism (Graph Pad). Signal was plotted vs. the decadal logarithm of compound concentration, and IC50 was determined by fitting a 4-parameter sigmoidal concentration response model.

[3] = target: KRAS G12D (Homo sapiens (Human), UniProt P01116+P62937, G12D); experiment: Ras-Raf (BRAF RBD) disruption / FRET / MOA assay, KRAS G12D; format: biochemical; details: Ras-Raf disruption/FRET/MOA assay; class symbols; read-out: KRAS G12D FRET data IC50
Description: (§1) The purpose of this biochemical assay is to measure the ability of test compounds to facilitate ternary complex formation between a nucleotide-loaded Ras isoform and cyclophilin A; the resulting ternary complex disrupts binding to a BRAF^RBD construct, inhibiting Ras signaling through a RAF effector.
(§2) Compound is present in plate wells as a 10-point 3-fold dilution series starting at a final concentration of 30 μM. After incubation at 25° C. for 3 hours, a mixture of Anti-His Eu-W1024 and anti-GST allophycocyanin is then added to assay sample wells at final concentrations of 10 nM and 50 nM, respectively, and the reaction incubated for an additional 1.5 hours. […] Compounds that facilitate disruption of a Ras:RAF complex are identified as those eliciting a decrease in the TR-FRET ratio relative to DMSO control wells.
(§3) This protocol may also be executed substituting other Ras proteins or nucleotides.
(§4) The purpose of this biochemical assay was to measure the ability of test compounds to facilitate ternary complex formation between a nucleotide-loaded K-Ras isoform and Cyclophilin A; the resulting ternary complex disrupts binding to a BRAF^RBD construct, inhibiting K-Ras signaling through a RAF effector. Data is reported as IC50 values.
as §2, with “Compound was” for “Compound is”, “allophycocyanin was” for “allophycocyanin is”, “a K-Ras:RAF” for “a Ras:RAF”, “complex were” for “complex are”

[4] = target: KRAS G12S (Homo sapiens (Human), UniProt P01116+P62937, G12S); experiment: Ras-Raf (BRAF RBD) disruption / FRET / MOA assay, KRAS G12S; format: biochemical; details: Ras-Raf disruption/FRET/MOA assay; class symbols; read-out: KRAS G12S FRET data IC50
Description: as §1, §2, §3, §4
as §2, with “Compound was” for “Compound is”, “allophycocyanin was” for “allophycocyanin is”, “a K-Ras:RAF” for “a Ras:RAF”, “complex were” for “complex are”

[5] = Homo sapiens, NCI-H358, H358 KRAS G12C, read-out: pERK EC50
[6] = H358 KRAS G12C, read-out: pERK EC50

KRAS G12D, sequence (P01116-2 other isoform, or with tags, fused parts or gaps G12D): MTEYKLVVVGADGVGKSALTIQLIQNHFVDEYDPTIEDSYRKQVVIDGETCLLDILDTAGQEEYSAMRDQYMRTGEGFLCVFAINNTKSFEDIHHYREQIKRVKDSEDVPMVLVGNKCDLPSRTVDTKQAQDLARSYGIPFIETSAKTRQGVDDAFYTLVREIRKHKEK
KRAS G12D, sequence (P62937 whole entry, canonical isoform): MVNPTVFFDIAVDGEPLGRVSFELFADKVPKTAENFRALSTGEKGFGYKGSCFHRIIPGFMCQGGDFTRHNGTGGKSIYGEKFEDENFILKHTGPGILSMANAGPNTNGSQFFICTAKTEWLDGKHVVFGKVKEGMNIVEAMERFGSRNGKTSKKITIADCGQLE
KRAS G12S, sequence (P01116-2 other isoform, or with tags, fused parts or gaps G12S): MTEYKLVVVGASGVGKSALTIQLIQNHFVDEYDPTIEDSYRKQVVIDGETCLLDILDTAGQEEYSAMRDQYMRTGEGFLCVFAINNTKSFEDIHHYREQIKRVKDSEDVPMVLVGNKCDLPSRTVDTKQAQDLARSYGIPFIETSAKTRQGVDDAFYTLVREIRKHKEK
KRAS G12S, sequence (P62937 whole entry): as the sequence (P62937 whole entry, canonical isoform) above

SMILES: C=CC(=O)N1CC[C@H](C(=O)N(C)[C@H](C(=O)N[C@H]2Cc3cccc(c3)-c3ccc4c(c3)c(c(-c3ccccc3CCOC)n4CC)CC(C)(C)COC(=O)[C@@H]3CCCN(N3)C2=O)C(C)C)C1 (atropisomer, axis not shown) [Example A24]
IC50 ([1]; Homo sapiens, NCI-H358, 120 h): > 1000 nM
EC50 [2, 5]: < 5 µM

SMILES: C=CC(=O)N1CC[C@H](C(=O)N(C)[C@H](C(=O)N[C@H]2Cc3cc(O)cc(c3)-c3ccc4c(c3)c(c(-c3ccccc3CCOC)n4C(C)(C)C#N)CC(C)(C)COC(=O)[C@@H]3CCCN(N3)C2=O)C(C)C)C1 [Example A12]
EC50 [2, 5]: < 5 µM

SMILES: C=CC(=O)N1CC[C@H](C(=O)N(C)[C@H](C(=O)N[C@H]2Cc3cc(OC(=O)CCC(=O)O)cc(c3)-c3ccc4c(c3)c(c(-c3ccccc3CCOC)n4CC)CC(C)(C)COC(=O)[C@@H]3CCCN(N3)C2=O)C(C)C)C1 [Example A32]
EC50 [2, 5]: < 5 µM

SMILES: C=CC(=O)N1CCN(C(=O)N(C)[C@H](C(=O)N[C@H]2Cc3cc(O)cc(c3)-c3ccc4c(c3)c(c(-c3ccccc3CN(C)C)n4CC)CC(C)(C)COC(=O)[C@@H]3CCCN(N3)C2=O)C(C)C)CC1 [Example A37]
EC50 [2, 5]: < 5 µM

SMILES: CCn1c(-c2ccccc2CN(C)C)c2c3cc(ccc31)-c1cc(O)cc(c1)C[C@H](NC(=O)[C@H](C(C)C)N(C)C(=O)c1ccc(NC(=O)/C=C/CN(C)C)cc1)C(=O)N1CCC[C@H](N1)C(=O)OCC(C)(C)C2 [Example A49]
IC50 ([1]; Homo sapiens, NCI-H358, 120 h): > 1000 nM

SMILES: CCn1c(-c2cccnc2COC)c2c3cc(ccc31)-c1cc(O)cc(c1)C[C@H](NC(=O)[C@H](C(C)C)N(C)C(=O)[C@H]1CCN(C(=O)/C=C/CN3CCN(C)CC3)C1)C(=O)N1CCC[C@H](N1)C(=O)OCC(C)(C)C2 [Example A72]
IC50 ([1]; Homo sapiens, NCI-H358, 120 h): > 1000 nM

SMILES: C=CC(=O)N1CC[C@H](C(=O)N(C)[C@H](C(=O)N[C@H]2Cc3cc(O)cc(c3)-c3ccc4c(c3)c(c(-c3cnccc3[C@H](C)OC)n4CC)CC(C)(C)COC(=O)[C@@H]3CCCN(N3)C2=O)C(C)C)C1 [Example A76]
EC50 [2, 6]: < 5 µM

SMILES: C=CC(=O)N1CC[C@H](C(=O)N(C)[C@H](C(=O)N[C@H]2Cc3cc(OC(=O)N(C)CC(=O)O)cc(c3)-c3ccc4c(c3)c(c(-c3ccccc3CCOC)n4CC)CC(C)(C)COC(=O)[C@@H]3CCCN(N3)C2=O)C(C)C)C1 [Example A78]
EC50 ([2]; Homo sapiens, NCI-H358, read-out: pERK EC50): < 5 µM

SMILES: CCn1c(-c2cnccc2COC)c2c3cc(ccc31)-c1cc(O)cc(c1)C[C@H](NC(=O)[C@H](C(C)C)N(C)C(=O)[C@H]1CCN(C(=O)C#CCN(C)C)C1)C(=O)N1CCC[C@H](N1)C(=O)OCC(C)(C)C2 [Example A88]
EC50 [2, 5]: < 5 µM

SMILES: CCn1c(-c2ccccc2CN(C)C)c2c3cc(ccc31)-c1cc(O)cc(c1)C[C@H](NC(=O)[C@H](C(C)C)N(C)C(=O)c1nc(NC(=O)/C=C/CN(C)C)cs1)C(=O)N1CCC[C@H](N1)C(=O)OCC(C)(C)C2 [Example A90]
IC50 ([1]; Homo sapiens, NCI-H358, 120 h): > 1000 nM

SMILES: C=CC(=O)N1CC[C@H](C(=O)N(C)[C@H](C(=O)NC2C[C@@H]3CN(CCO3)c3ccc4c(c3)c(c(-c3cccnc3COC)n4CC)CC(C)(C)COC(=O)[C@@H]3CCCN(N3)C2=O)C(C)C)C1 (some centres unmarked) [Example A318]
IC50 [1]: > 1000 nM
IC50 [3]: > 10 µM
IC50 [4]: > 10 µM

The next lines start with the values.

IC50 ([1]; Homo sapiens, NCI-H358, 120 h): 100 to 1000 nM
EC50 [2, 5]: < 5 µM
SMILES: C=CC(=O)N1CC[C@H](C(=O)N(C)[C@H](C(=O)N[C@H]2Cc3cc(O)cc(c3)-c3cc(F)c4c(c3)c(c(-c3ccccc3CCOC)n4CC)CC(C)(C)COC(=O)[C@@H]3CCCN(N3)C2=O)C(C)C)C1 (atropisomer, axis not shown) [Example A53]

IC50 [1]: > 1000 nM
SMILES: CC#CC(=O)N1CC[C@H](C(=O)N(C)[C@@H](C(=O)N[C@H]2Cc3cc(O)cc(c3)-c3ccc4c(c3)c(c(-c3cccnc3[C@H](C)OC)n4CC)CC(C)(C)COC(=O)[C@@H]3CCCN(N3)C2=O)C(C)C)C1 (atropisomer, axis not shown) [Example A198]

EC50 [2, 6]: < 5 µM
SMILES: CC#CC(=O)N1CC[C@H](C(=O)N(C)[C@H](C(=O)N[C@H]2Cc3cc(O)cc(c3)-c3ccc4c(c3)c(c(-c3cccnc3[C@H](C)OC)n4CC)CC(C)(C)COC(=O)[C@@H]3CCCN(N3)C2=O)C(C)C)C1 (atropisomer, axis not shown; (M)) [Example A145, (2S)-2-{1-[(3S)-1-(but-2-ynoyl)pyrrolidin-3-yl]-N-methylformamido}-N-[(8S,14S,20M)-22-ethyl-4-hydroxy-21-{2-[(1S)-1-methoxyethyl]pyridin-3-yl}-18,18-dimethyl-9,15-dioxo-16-oxa-10,22,28-triazapentacyclo[18.5.2.1^2,^6.1^10,^14.0^23,^27]nonacosa-1(26),2,4,6(29),20,23(27),24-heptaen-8-yl]-3-methylbutanamide]

EC50 [2, 5]: < 5 µM
SMILES: C=CC(=O)N1CC[C@H](C(=O)N(C)[C@H](C(=O)N[C@H]2Cc3cc(O)cc(c3)-c3ccc4c(c3)c(c(-c3ccccc3CO)n4CC)CC(C)(C)COC(=O)[C@@H]3CCCN(N3)C2=O)C(C)C)C1 [Example A4]

EC50 [2, 5]: < 5 µM
SMILES: CCn1c(-c2ccccc2CCOC)c2c3cc(ccc31)-c1cc(O)cc(c1)C[C@H](NC(=O)[C@H](C(C)C)N(C)C(=O)[C@H]1CCN(C(=O)/C=C/CN(C)C)C1)C(=O)N1CCC[C@H](N1)C(=O)OCC(C)(C)C2 [Example A15]

EC50 [2, 6]: < 5 µM
SMILES: C=CC(=O)N1CC[C@H](C(=O)N(C)[C@H](C(=O)N[C@H]2Cc3cc(O)cc(c3)-c3ccc4c(c3)c(c(-c3ccccc3CCOC)n4C(C)(C)C#N)CC(C)(C)COC(=O)[C@@H]3CCCN(N3)C2=O)C(C)C)C1 [Example A34]

EC50 [2, 5]: < 5 µM
SMILES: C=CC(=O)N1CC[C@H](C(=O)N(C)[C@H](C(=O)N[C@H]2Cc3cc(O)cc(c3)-c3ccc4c(c3)c(c(-c3ccncc3CCOC)n4CC)CC(C)(C)COC(=O)[C@@H]3CCCN(N3)C2=O)C(C)C)C1 [Example A48]

EC50 [2, 6]: < 5 µM
SMILES: C=CC(=O)N1CC[C@H](C(=O)N(C)[C@H](C(=O)N[C@H]2Cc3cc(O)cc(c3)-c3ccc4c(c3)c(c(-c3cccnc3)n4C(C)(C)C#N)CC(C)(C)COC(=O)[C@@H]3CCCN(N3)C2=O)C(C)C)C1 [Example A74]

EC50 [2, 5]: < 5 µM
SMILES: C=CC(=O)N1CC[C@H](C(=O)N(C)[C@H](C(=O)N[C@H]2Cc3cc(O)cc(c3)-c3ccc4c(c3)c(c(-c3cncc(CCN(C)C)c3)n4CC)CC(C)(C)COC(=O)[C@@H]3CCCN(N3)C2=O)C(C)C)C1 [Example A81]

IC50 [3]: > 10 µM
IC50 [4]: 1 to 10 µM
SMILES: C=CC(=O)N1CC[C@H](C(=O)N(C)[C@H](C(=O)N[C@H]2Cc3cc(O)cc(c3)-c3ccc4c(c3)c(c(-c3ccc(CN5CC[C@@H](O)C5)cc3)n4CC)CC(C)(C)COC(=O)[C@@H]3CCCN(N3)C2=O)C(C)C)C1 [Examples A001]
